Each structure is given as a SMILES string. Read-outs that look alike come from different tables or passages of the source.

Series [1] concerns SJCRH30.
The subject of series [2] is MDCK. The arrangement: key to the marks not given beside the values.
For series [3], the system named is CHO-K1.
Series [4] deals with MCF7. The arrangement: key to the marks not given beside the values.
Series [5] concerns HEK293.
Series [6] concerns BT549.
Series [7] deals with NL20. The arrangement: key to the marks not given beside the values.
Series [8] relates to DMS-114.
Series [9] relates to 184B5.
The test system of series [10] is A549.
In series [11] the test system is T47D.
The test system of series [12] is rat brain synaptosomes. Put plainly: Receptor binding assays.
Where [13] appears, read: SJCRH30 cells, 400 nM, 1 hour at 37° C., 20× objective, Example 15C.

Regarding `Cc1cc(C)n2c1C=C1C=CC(CCC(=O)NN)=[N+]1[B-]2(F)F` [BODIPY ®, 4,4-difluoro-5,7-dimethyl-4-bora-3a,4a-diaza-s-indacene-3-propionic acid, hydrazide], the level of fluorescence result in series [1] is “+”; in [2], “++”; in series [3], “−”; in series [4], “++”; in [5], “−”; in [6] it was “+”. Moreover, the level of fluorescence entry in [7] is “++”; in [8] it was “−”; in series [9] it was “+”; in series [10], “−”; in series [11], “+”.
`COc1cccc2c1C(=O)c1c(O)c3c(c(O)c1C2=O)C[C@@](O)(C(C)=O)C[C@@H]3O[C@H]1C[C@H](N)[C@H](O)[C@H](C)O1` [Daunorubicin]: the level of fluorescence result in [1] (setting [13]) was “−”.
The same measure, in the same setting: with `CN(C)c1ccc2c(-c3cc(C(=O)[O-])ccc3C(=O)O)c3ccc(=[N+](C)C)cc-3oc2c1` [Example 6-TAMRA, 6-carboxytetramethylrhodamine] the entry was “−”.
Consider `C=C/C=C\CC[C@H]1O[C@H]2CC[C@@]3(C)O[C@H]4[C@@H](O)C[C@@]5(C)O[C@@H](CC/C=C(C)/C(C)=C/C=O)[C@@H](C)C[C@H]5O[C@@H]4C[C@@H]3O[C@@H]2CC[C@@]1(C)O` [brevenal], for which, in [12] (parent compound, first value printed for brevenal), the “affinity (binding to rat brain synaptosomes)” value lay in the range of 400 to 800 nM.
Consider `C=C(C=O)C[C@@H]1C[C@H](O)[C@]2(C)O[C@@H]3C[C@@H]4O[C@@H]5C[C@]6(C)O[C@]7(C)CC[C@@H]8O[C@@H]9C[C@]%10(C)O[C@@H]%11C(C)=CC(=O)O[C@H]%11C[C@H]%10O[C@H]9C[C@@H](C)[C@H]8O[C@H]7C[C@H]6O[C@H]5C/C=C\[C@H]4O[C@H]3C[C@H]2O1` [brevetoxin], for which the “affinity (binding to rat brain synaptosomes)” value in series [12] is given as 2-10 nm.

These data come from patent US20160128321A1, “Ladder-Frame Polyether Conjugates” (priority 2010, published 2016).
